Test results from publication PMC3878761, “Interactions of peptide triazole thiols with Env gp120 induce irreversible breakdown and inactivation of HIV-1 virions” (Retrovirology, 2013).
Values joined by “and” are separate entries in the source; they are usually repeats but may differ in a detail not shown here. Equal values may be shown once. “Also recorded” adds a separate entry of the source. Read-outs that look alike come from different tables or passages of the source. Starred links: 1 amine or outer side, 2 acyl side, 3 side chain; linkers in the order of their positions; H or OH if unused. Non-standard residues stand in square brackets, D forms with d. Residues, ends and D or L forms follow the SMILES beside them. X1 = O=C([C@@H]1C[C@H](n2cc([C]34[CH]5[CH]6[CH]7[CH]3[Fe]6754389%10[CH]4[CH]3[CH]8[CH]9[CH]4%10)nn2)CN1[*:1])[*:2]; βAla = NCCC(=O)O

Assays:
HIV-1 YU2 gp120 = target: T1, HIV-1 YU2 gp120 (Human immunodeficiency virus type 1 group M subtype B, UniProt P35961); assay: SPR direct binding to immobilized YU2 gp120; conditions: immobilized YU2 gp120, PBS + 0.005% Tween 20, pH 7.2, 25°C
T1 construct: made in house; host or cells: 293F cells
Protocol: (Additional file 1: Figure S2). […] Direct binding of the peptide triazole to sensor chip immobilized HIV-1 YU2 gp120 was measured as previously described using Surface Plasmon Resonance (SPR) with a Biacore 3000 optical biosensor (GE Healthcare). […] The cell viability was measured using the tetrazolium salt premix reagent, WST-1 from Takara Bio Inc. following the manufacturer’s protocol. The formazan product was measured using the microplate reader at absorbance wavelength 460 nm (Molecular Devices).

[1] = test system: gp41 of HIV-1 BaL pseudovirus (4E10 epitope); assay: exposure of gp41 MPER epitope, 4E10 ELISA; conditions: fixed BaL pseudovirions, 30 min at 37°C (dose) or 1 μM (time), n = 3
Protocol: (§1) We also measured the presence of gp41 epitopes for human mAb’s 2 F5 and 4E10 using an altered ELISA detection method to minimize virus particle disruption. […] Virus fractions were collected and fixed with equal volume of 0.1% paraformaldehyde for 30 minutes at 4°C. The treated virus fractions were spun at 16,000 X g for 2 hours at 4°C in an Eppendorf table top centrifuge. Following PBS wash, fixed virions were coated on an ELISA plate at 50 μl per well and incubated overnight at 4°C. The plate was blocked with 3% BSA, and ELISA was used to detect gp41 epitopes with human gp41 antibodies 2 F5 and 4E10 followed by addition of anti-human IgG HRP secondary antibody.

[2] = test system: gp41 of HIV-1 BaL pseudovirus (2 F5 epitope); assay: exposure of gp41 MPER epitope, 2 F5 ELISA; conditions: fixed BaL pseudovirions, 30 min at 37°C (dose) or 1 μM (time), n = 3
Protocol: as §1

HIV-1 BaL pseudovirus [3] = test system: HIV-1 BaL pseudovirus
[4] = test system: fully infectious HIV-1 BaL virions; conditions: upto 200 µM, n = 3
Protocol: (§2) The replication competent virions were assayed for peptide triazole-induced inhibition of infection, gp120 shedding and p24 release in a BSL-2 facility. Gradient purification of the viruses and p24 release assays were performed as with pseudoviruses (described in Materials and Methods above). Cell infection by virus and its inhibition by peptide triazoles were tested using a modified version of a previously reported p24 ELISA assay [60]. The p24 release assays as well as detection of gp120 shedding were conducted as with the BaL pseudovirions (described in Materials and Methods above).
(§3) Virions were purified using 6-20% iodixanol gradient and p24 content measured using ELISA. […] HOS CD4^+ve CCR5^+ve cells seeded, at 8,000 cells per well in a 96 well plate, were incubated for 24 hours followed by addition of pre-incubated inhibitor-virus mixture. […] Further, the peptide triazole and cell-free virus were pre-incubated for 30 min at 37°C followed by spinning for 2 hours at 13,600 rpm in a table top centrifuge (Eppendorf) at 4°C. Supernatant was separated and p24 content determined using the p24 capture ELISA (explained in the main Materials and Methods section) and gp120 using western blot analysis (explained in the Supplementary Text above).

HIV-1 BaL pseudovirus [5] = assay: p24 release from HIV-1 BaL pseudovirus (ELISA); conditions: ELISA
[6] = test system: fully infectious HIV-1 BaL virions; assay: gp120 shedding from fully infectious HIV-1 BaL; conditions: read-out: gp120 shedding IC50 (*, fully infectious), 30 min at 37°C, western blot, ± SD
Protocol: as §2, §3

[7] = test system: gp41 of HIV-1 BaL pseudovirus (98–6 epitope); assay: gp41 content of treated virions, mAb 98-6 western blot; conditions: western blot mAb 98–6, BaL pseudovirus
HIV-1 BaL pseudovirus [8] = assay: gp120 shedding from HIV-1 BaL pseudovirus (western blot)
[9] = target: T2, sCD4 binding to plate-immobilized YU2 gp120 (Human immunodeficiency virus type 1 group M subtype B, UniProt P35961); assay: competition ELISA, sCD4 binding to gp120; design: species or system HIV-1; conditions: ± SD, n > 3
T2 construct: made in house; host or cells: 293F cells

[10] = target: T3, 17b binding to plate-immobilized YU2 gp120 (Human immunodeficiency virus type 1 group M subtype B, UniProt P35961); assay: competition ELISA, mAb 17b binding to gp120; design: species or system HIV-1; conditions: m17b binding to plate-immobilized gp120, ± SD, n > 3
T3 construct: made in house; host or cells: 293F cells

CD4^-ve CCR5^+ve cells = conditions: cited from earlier work
Protocol: The same incubation conditions were used as for inhibition of HIV-1 entry into HOS […] cells.

[11] = target: HIV-1 BaL Env gp120 on virions (HIV-1 BaL)
[12] = test system: R5-tropic and X4-tropic HIV-1; design: method as in 2 sources, one per row (each row's own in cited_ref): ref 7-9, 12 = [7]; PMID 20518583; doi:10.2165/11203940-000000000-00000; Perry CM Maraviroc: a review of its use in the management of CCR5-tropic HIV-1 infection Drugs 2010 10 9 1189 1213 10.2165/11203940-000000000-00000 20518583 || [8]; PMID 23541872; doi:10.1016/j.antiviral.2013.03.017; Haqqani AA Tilton JC Entry inhibitors and their use in the treatment of HIV-1 infection Antiviral Res 2013 10 2 158 170 10.1016/j.antiviral.2013.03.017 23541872 || [9]; PMID 23290628; doi:10.1016/j.coviro.2012.12.002; Henrich TJ Kuritzkes DR HIV-1 entry inhibitors: recent development and clinical use Curr Opin Virol 2013 10 1 51 57 10.1016/j.coviro.2012.12.002 23290628 PMC4213740 || [12]; PMID 17933722; Emmelkamp JM Rockstroh JK CCR5 antagonists: comparison of efficacy, side effects, pharmacokinetics and interactions–review of the literature Eur J Med Res 2007 10 9 409 417 17933722 ||| ref 34 = [34]; PMID 23470147; doi:10.1021/bi400166b; Emileh A Tuzer F Yeh H Umashankara M Moreira DR Lalonde JM Bewley CA Abrams CF Chaiken IM A model of peptide triazole entry inhibitor binding to HIV-1 gp120 and the mechanism of bridging sheet disrupt; conditions: cited from earlier work
HIV-1 BaL pseudovirus [13] = conditions: KR13 1 μM, T20 dilutions from 1 μM, 30 min at 37°C, p24 ELISA, ± SD, n = 3
Protocol: (§4) Treated virion samples were fractionated on a 6-20% iodixanol gradient (above). Gradient fractions were quantified for p24 using ELISA, and relative p24 release was quantified and plotted using the Origin Pro.8 (Origin Lab). Collected gradient fractions also were analyzed for gp120 shedding using western blot analysis, with detection using primary antibody D7324 and secondary anti-sheep HRP. The bands of the blot were analyzed using Image J software. The IC50 values were calculated using Origin Pro.8 (Origin Lab).

HIV-1 BaL pseudovirus [14] = assay: T20 effect on KR13-induced gp120 shedding, BaL; conditions: KR13 1 μM, T20 up to 1 μM, western blot, n = 3
Protocol: as §4

[15] = parenteral; cited from earlier work
Description: There is an urgent need for new antiretroviral agents for the prevention and treatment of HIV-1. Most of the currently approved HIV drugs target viral enzymes, in particular reverse transcriptase, protease and integrase. In contrast, the number of anti-HIV drugs targeting the entry process is more limited. The proteins involved in HIV-1 entry include gp120 and gp41 organized as a trimer on the viral envelope spike, and both CD4 and a chemokine receptor, either CCR5 or CXCR4, on the cell surface. The fusion inhibitor enfuvirtide (T20) and the CCR5 inhibitor maraviroc are t ...

Compound: CC[C@H](C)[C@H](NC(=O)[C@@H](N)CCCNC(=N)N)C(=O)N[C@@H](CC(N)=O)C(=O)N[C@@H](CC(N)=O)C(=O)N[C@H](C(=O)N1C[C@@H](n2cc([C]34[CH]5[CH]6[CH]7[CH]3[Fe]6754389%10[CH]4[CH]3[CH]8[CH]9[CH]4%10)nn2)C[C@H]1C(=O)N[C@@H](Cc1c[nH]c2ccccc12)C(=O)N[C@@H](CO)C(=O)N[C@@H](CCC(=O)O)C(=O)N[C@@H](C)C(=O)N[C@@H](CCSC)C(=O)N[C@@H](CCSC)C(N)=O)[C@@H](C)CC (stereo partly shown) [HNG156]
- SPR direct binding to gp120, in words (HIV-1 YU2 gp120): bound to gp120
- reactivity to 4E10 [1]: MPER epitopes were poorly exposed
- reactivity to 2 F5 [2]: MPER epitopes were poorly exposed
- kinetics of infectivity inhibition versus gp120 shedding (HIV-1 BaL pseudovirus [3]; KR13 1 μM or HNG156 100 μM, 1 min to 24 hours, 37°C): infectivity inhibition and gp120 shedding had similar kinetics
- p24 release, fully infectious, in words [4]: No p24 release was observed
- p24 release, in words (HIV-1 BaL pseudovirus [5]): neither of these peptides caused p24 release
- IC50 [6]: 1800 nM
- gp41 retention / 98–6 detection [7]: gp41 remained associated with virions
- gp120 shedding, in words (HIV-1 BaL pseudovirus [8]): caused gp120 shedding; also recorded: induced only gp120 shedding

Compound: CC[C@H](C)[C@H](NC(=O)[C@@H](N)CCCNC(=N)N)C(=O)N[C@@H](CC(N)=O)C(=O)N[C@@H](CC(N)=O)C(=O)N[C@H](C(=O)N1C[C@@H](n2cc([C]34[CH]5[CH]6[CH]7[CH]3[Fe]6754389%10[CH]4[CH]3[CH]8[CH]9[CH]4%10)nn2)C[C@H]1C(=O)N[C@@H](Cc1c[nH]c2ccccc12)C(=O)N[C@@H](CO)C(=O)N[C@@H](CCC(=O)O)C(=O)N[C@@H](C)C(=O)N[C@@H](CCSC)C(=O)N[C@@H](CCSC)C(=O)NCCC(=O)N[C@@H](CCC(N)=O)C(=O)NCCC(=O)N[C@@H](CSCNC(C)=O)C(N)=O)[C@@H](C)CC (stereo partly shown) [KR13b]
- SPR direct binding to gp120, in words (HIV-1 YU2 gp120): bound to gp120
- p24 release, in words (HIV-1 BaL pseudovirus [5]): neither of these peptides caused p24 release
- gp120 shedding, in words (HIV-1 BaL pseudovirus [8]): caused gp120 shedding; also recorded: induced only gp120 shedding

Compound: CC[C@H](C)[C@H](NC(=O)[C@H](CC(N)=O)NC(=O)[C@H](CC(N)=O)NC(=O)[C@@H](NC(=O)[C@@H](N)CCCNC(=N)N)[C@@H](C)CC)C(=O)N[C@@H](Cc1c[nH]c2ccccc12)C(=O)N1C[C@@H](n2cc([C]34[CH]5[CH]6[CH]7[CH]3[Fe]6754389%10[CH]4[CH]3[CH]8[CH]9[CH]4%10)nn2)C[C@H]1C(=O)N[C@@H](CO)C(=O)N[C@@H](CCC(=O)O)C(=O)N[C@@H](C)C(=O)N[C@@H](CCSC)C(=O)N[C@@H](CCSC)C(=O)NCCC(=O)N[C@@H](CCC(N)=O)C(=O)NCCC(=O)N[C@@H](CS)C(N)=O (stereo partly shown) [KR13s] (H-RINNIW[X1]SEAMM[βAla]Q[βAla]C-NH2; N-terminus assumed)
- SPR direct binding to gp120, in words (HIV-1 YU2 gp120): low and inconsistent dose dependent signals
- IC50, sCD4 competition [9]: undetected
- IC50, 17b competition [10]: undetected
- inhibition of infection, in words (HIV-1 BaL pseudovirus [3]; single round infection assay): inactive
- gp120 shedding, in words (HIV-1 BaL pseudovirus [8]): not the KR13s control, caused gp120 shedding

Compound: CC1(C)CC(NC(=O)C(=O)Nc2ccc(Cl)cc2)CC(C)(C)N1 [NBD-556]
- activation of infection, CD4^-ve CCR5^+ve cells (NBD-556) (CD4^-ve CCR5^+ve cells): can activate infection in CD4^-ve CCR5^+ve cells

Compound: KR13b (KR13 with the thiol blocked with an acetamidomethyl (ACM) group) (peptide)
- gp120 shedding from HIV-1 BaL pseudovirus (western blot), IC50 [11]: 120 nM
- inhibition of cell infection (viral inactivation), HIV-1 BaL pseudovirus, EC50 [11]: 52 nM

Compound: Maraviroc [reference compound]
- antiviral tropism [12]: blocks R5-tropic but not X4-tropic HIV-1

Compound: enfuvirtide
- IC50 (HIV-1 BaL pseudovirus [13]): 15 nM and 15.9 nM
- effect of T20 on KR13-induced gp120 shedding (HIV-1 BaL pseudovirus [14]): did not affect gp120 shedding caused by KR13; also recorded: No significant effect on the gp120 release
- IC50 (HIV-1 BaL pseudovirus [3]; read-out: IC50, infection inhibition, BaL (Figure S9), Figure S9, ± SD, n = 3): 34.5 ± 1.2 nM
- adverse reactions at sites of injection [15]: adverse reactions at sites of injection are common
